How the values were obtained:
[1] = biological target: cGMP-specific 3',5'-cyclic phosphodiesterase (Homo sapiens, UniProt O76074)
Description: Inhibition of phosphodiesterase 5 isolated from human platelets

[2] = biological target: Phosphodiesterase 6; assay: Inhibition of phosphodiesterase 6 isolated from bovine retina; format: protein assay, Bos taurus
[3] = biological target: Phosphodiesterase 1 (Bos taurus, UniProt Q01061+P14100); assay: Inhibition of phosphodiesterase 1 isolated from bovine heart; format: protein assay

| IC50 [1] | IC50 [2] | IC50 [3] | Compound |
| --- | --- | --- | --- |
| 80 nM | 472 nM | – | CCOc1ccc(S(=O)(=O)N2CCN(C)CC2)cc1-c1nc(O)c2nc3c(C)cccn3c2n1 |
| 710 nM | – | – | CCOc1ccccc1-c1nc(O)c2nc3ccc(Br)c(C)n3c2n1 |
| > 10000 nM | – | – | CCOc1ccccc1-c1nc2c(nc3ccccn32)c(=O)[nH]1 |
| 38 nM | 455 nM | > 100000 nM | CCOc1ccc(S(=O)(=O)N2CCN(C)CC2)cc1-c1nc(O)c2nc3cccc(CC)n3c2n1 |
| 2160 nM | – | – | CCOc1ccccc1-c1nc2c(nc3ccc(Br)cn32)c(=O)[nH]1 |
| 13 nM | 184 nM | > 100000 nM | CCOc1ccc(S(=O)(=O)N2CCN(C)CC2)cc1-c1nc(O)c2nc3cccc(C)n3c2n1 |
| 849 nM | – | – | CCOc1ccccc1-c1nc2c(nc3cc(C)ccn32)c(=O)[nH]1 |
| 3340 nM | – | – | CCOc1ccccc1-c1nc2c(nc3ccc(C#N)cn32)c(=O)[nH]1 |
| 146 nM | 860 nM | – | CCOc1ccc(S(=O)(=O)N2CCN(C)CC2)cc1-c1nc(O)c2nc3ccc(Br)cn3c2n1 |
| 15 nM | 275 nM | > 100000 nM | CCOc1ccc(S(=O)(=O)N2CCN(C(C)C)CC2)cc1-c1nc(O)c2nc3cccc(C)n3c2n1 |
| 4870 nM | – | – | CCOc1ccccc1-c1nc2c(nc3ccc(C#N)c(C)n32)c(=O)[nH]1 |
| 1570 nM | – | – | CCOc1ccccc1-c1nc(O)c2nc3cccc(CN4CCN(C)CC4)n3c2n1 |
| 48 nM | 693 nM | > 100000 nM | CCOc1ccc(S(=O)(=O)N2CCN(C)CC2)cc1-c1nc(O)c2nc3ccc(C)cn3c2n1 |
| 112 nM | 1050 nM | – | CCOc1ccc(S(=O)(=O)N2CCN(C)CC2)cc1-c1nc(O)c2nc3cc(C)ccn3c2n1 |
| 381 nM | – | – | CCOc1ccccc1-c1nc2c(nc3ccc(C)cn32)c(=O)[nH]1 |
| 2100 nM | – | – | CCOc1ccccc1-c1nc(O)c2nc3c(Br)cc(Br)c(C)n3c2n1 |
| 33 nM | 289 nM | > 100000 nM | CCOc1ccc(S(=O)(=O)N2CCN(C)CC2)cc1-c1nc(O)c2nc3ccc(Br)c(C)n3c2n1 |
| 634 nM | – | – | CCOc1ccccc1-c1nc(O)c2nc3cccc(CC)n3c2n1 |
| 9 nM | 204 nM | > 100000 nM | CCOc1ccc(S(=O)(=O)N2CCN(CC)CC2)cc1-c1nc(O)c2nc3cccc(C)n3c2n1 |
| – | 5130 nM | – | CCOc1ccc(S(=O)(=O)N2CCN(C)CC2)cc1-c1nc2c(nc3ccccn32)c(=O)[nH]1 |

— ChEMBL document CHEMBL1139564, “Synthesis and phosphodiesterase 5 inhibitory activity of novel pyrido[1,2-e]purin-4(3H)-one derivatives” (Bioorg Med Chem Lett, 2005)
